According to patent publication US20240390295A1, “METHODS FOR TREATING DEPRESSION” (JANSSEN PHARMACEUTICA NV, priority 2020, published 2024):

System: adult patients (aged 18-64 years) with TRD
Experiment: Clinician-reported adverse events: incidence and recurrence by Week 1/Week 4 frequency, pooled studies 1 and 2 (ESK + OAD)
Format: in vivo, human
Excerpt: Data were pooled from adult patients (aged 18-64 years) with TRD. Patients had recurrent or single-episode (>2 years) MDD (DSM-5), a Clinician-Rated Inventory of Depressive Symptomatology score of >3 and a total Montgomery-Åsberg Depression Rating Scale (MADRS) score of >2. At screening, depressive symptoms had been non-responsive to adequate trials of ≥1 and ≤5 commercially available OAD in the current depressive episode. Non response was further confirmed by a prospective trial of a different OAD lasting ≥4 weeks and during the screening phase.
In brief, study 1 was a double-blind, placebo-controlled relapse prevention trial comparing the efficacy of ESK versus placebo nasal spray, both in conjunction with a Food and Drug Administration (FDA)-approved OAD, in delaying relapse of depressive symptoms in patients with TRD who were either in stable remission or stable response after four months' treatment with ESK in conjunction with a FDA-approved OAD. Study 2 was an open-label, multicenter study that assessed the long-term safety and efficacy of ESK in conjunction with an FDA-approved OAD in patients with TRD.
The analysis was limited to the two doses of ESK (56 mg and 84 mg) approved for use by the FDA for patients with TRD. Patients received ESK (56 or 84 mg) in conjunction with an OAD twice weekly during the induction phase (Weeks 1-4); once weekly during Weeks 5-8 of the optimization phase: either once weekly or every other week during the remainder of the 12-week optimization phase and the maintenance phase (individualized according to the severity of depressive symptoms [MADRS total score≤/>12] and tolerability).
Patients were monitored for >90 minutes after ESK administration at each treatment session, after which time they could leave the clinical site at the clinician's discretion. AEs were monitored and reported, and safety assessments, including clinical laboratory tests and physical examinations, were conducted throughout the study. Clinician-reported AEs were categorized as mild, moderate, or severe based on clinical judgement (Table 1).
This analysis included any treatment sessions in which patients received ESK (either open-label or blinded). The occurrence and severity of AEs were assessed within the following timeframes: Month 1 (Week 1 and Weeks 2-4), Month 2 (Weeks 5-8), Months 3-6 and Months 6-12. Severity of clinician-reported AEs were scored as 0 (no AE), 1 (mild), 2 (moderate), and 3 (severe). To examine AEs in individual patients over time, only patients who received at least one ESK dose in the following period were included in the analyses of each respective period. Thus, patient data were retained in (i) Week 1 if the patient received ≥1 ESK dose in Weeks 2-4, (ii) Weeks 2-4 if the patient received ≥1 ESK dose in Weeks 5-8, (iii) Weeks 5-8 if the patient received ≥1 ESK dose in Months 3-6, and (iv) Months 3-6 if the patient received ≥1 ESK dose in Months 6-12.
The five most commonly reported treatment-emergent events occurring with ESK plus OAD therapy (dissociation, dizziness, nausea, sedation, and vertigo) were evaluated, each of which has an incidence ≥5% and at least a 2-fold greater incidence than with placebo plus an OAD. 14 Increases in BP were also examined.
Week 1 and Week 4 were set a priori as index weeks because they are the beginning and end of the induction period. Frequencies and maximum-reported severities of AEs reported during these index weeks served as stratifying variables by which to examine recurrence and severities of AE recurrences in future timeframes.

[1] = Months 3-6, overall rate for timeframe
[2] = Months 6-12, AE twice in Week 1
[3] = Months 6-12, overall rate for timeframe
[4] = Week 1, overall rate for timeframe

Compound: CN[C@]1(c2ccccc2Cl)CCCCC1=O [esketamine, (S)-2-(2-chlorophenyl)-2-(methylamino)cyclohexanone]
- vomiting during later periods (8 participants who had vomiting twice during week 1): none experienced vomiting during later periods
- participants experiencing an AE after any subsequent treatment session (AE not reported in week 1): < 10%
- Clinician-reported dissociation (Months 3-6, AE once in Week 1): 26.2%
- Clinician-reported increased blood pressure (Months 3-6, AE once in Week 1): 36.4%
- Clinician-reported sedation (Months 3-6, AE once in Week 1): 0%
- Dizziness (Months 3-6, AE once in Week 1): 31.2%
- Nausea (Months 3-6, AE once in Week 1): 20.8%
- Vertigo (Months 3-6, AE once in Week 1): 28.6%
- Clinician-reported dissociation (Months 3-6, AE twice in Week 1): 61.1%
- Clinician-reported increased blood pressure (Months 3-6, AE twice in Week 1): 40.0%
- Clinician-reported sedation (Months 3-6, AE twice in Week 1): 36.4%
- Dizziness (Months 3-6, AE twice in Week 1): 53.0%
- Nausea (Months 3-6, AE twice in Week 1): 33.3%
- Vertigo (Months 3-6, AE twice in Week 1): 59.5%
- Clinician-reported dissociation (Months 3-6, No AE in Week 1): 7.6%
- Clinician-reported increased blood pressure (Months 3-6, No AE in Week 1): 3.0%
- Clinician-reported sedation (Months 3-6, No AE in Week 1): 3.0%
- Dizziness (Months 3-6, No AE in Week 1): 7.5%
- Nausea (Months 3-6, No AE in Week 1): 4.5%
- Vertigo (Months 3-6, No AE in Week 1): 3.4%
- Anxiety (Months 3-6, None in Week 1): 1.2%
- Feeling Drunk (Months 3-6, None in Week 1): 0.2%
- Hypoesthesia (Months 3-6, None in Week 1): 2.5%
- Lethargy (Months 3-6, None in Week 1): 0.2%
- Vomiting (Months 3-6, None in Week 1): 1.9%
- Anxiety (Months 3-6, Once in Week 1): 10.0%
- Feeling Drunk (Months 3-6, Once in Week 1): 16.7%
- Hypoesthesia (Months 3-6, Once in Week 1): 20.7%
- Lethargy (Months 3-6, Once in Week 1): 40.0%
- Vomiting (Months 3-6, Once in Week 1): 21.1%
- Anxiety (Months 3-6, Overall): 1.5%
- Feeling Drunk (Months 3-6, Overall): 1.5%
- Hypoesthesia (Months 3-6, Overall): 5.2%
- Lethargy (Months 3-6, Overall): 0.5%
- Vomiting (Months 3-6, Overall): 2.5%
- Anxiety (Months 3-6, Twice in Week 1): 50.0%
- Feeling Drunk (Months 3-6, Twice in Week 1): 100.0%
- Hypoesthesia (Months 3-6, Twice in Week 1): 73.3%
- Lethargy (Months 3-6, Twice in Week 1): 0%
- Vomiting (Months 3-6, Twice in Week 1): 0%
- Clinician-reported dissociation [1]: 14.4%
- Clinician-reported increased blood pressure [1]: 4.2%
- Clinician-reported sedation [1]: 3.5%
- Dizziness [1]: 15.6%
- Nausea [1]: 7.2%
- Vertigo [1]: 8.2%
- Clinician-reported dissociation (Months 6-12, AE once in Week 1): 18.5%
- Clinician-reported increased blood pressure (Months 6-12, AE once in Week 1): 9.1%
- Clinician-reported sedation (Months 6-12, AE once in Week 1): 0%
- Dizziness (Months 6-12, AE once in Week 1): 20.8%
- Nausea (Months 6-12, AE once in Week 1): 18.2%
- Vertigo (Months 6-12, AE once in Week 1): 23.8%
- Clinician-reported dissociation [2]: 33.3%
- Clinician-reported increased blood pressure [2]: 20.0%
- Clinician-reported sedation [2]: 45.5%
- Dizziness [2]: 21.2%
- Nausea [2]: 8.3%
- Vertigo [2]: 38.1%
- Clinician-reported dissociation (Months 6-12, No AE in Week 1): 4.6%
- Clinician-reported increased blood pressure (Months 6-12, No AE in Week 1): 1.7%
- Clinician-reported sedation (Months 6-12, No AE in Week 1): 1.7%
- Dizziness (Months 6-12, No AE in Week 1): 4.0%
- Nausea (Months 6-12, No AE in Week 1): 4.9%
- Vertigo (Months 6-12, No AE in Week 1): 1.7%
- Anxiety (Months 6-12, None in Week 1): 2.1%
- Feeling Drunk (Months 6-12, None in Week 1): 0.2%
- Hypoesthesia (Months 6-12, None in Week 1): 1.6%
- Lethargy (Months 6-12, None in Week 1): 1.6%
- Vomiting (Months 6-12, None in Week 1): 1.9%
- Anxiety (Months 6-12, Once in Week 1): 0%
- Feeling Drunk (Months 6-12, Once in Week 1): 33.3%
- Hypoesthesia (Months 6-12, Once in Week 1): 13.8%
- Lethargy (Months 6-12, Once in Week 1): 0%
- Vomiting (Months 6-12, Once in Week 1): 10.5%
- Anxiety (Months 6-12, Overall): 2.2%
- Feeling Drunk (Months 6-12, Overall): 1.5%
- Hypoesthesia (Months 6-12, Overall): 3.2%
- Lethargy (Months 6-12, Overall): 0.2%
- Vomiting (Months 6-12, Overall): 2.2%
- Anxiety (Months 6-12, Twice in Week 1): 50.0%
- Feeling Drunk (Months 6-12, Twice in Week 1): 85.7%
- Hypoesthesia (Months 6-12, Twice in Week 1): 40.0%
- Lethargy (Months 6-12, Twice in Week 1): 0%
- Vomiting (Months 6-12, Twice in Week 1): 0%
- Clinician-reported dissociation [3]: 8.8%
- Clinician-reported increased blood pressure [3]: 2.2%
- Clinician-reported sedation [3]: 2.5%
- Dizziness [3]: 8.1%
- Nausea [3]: 6.7%
- Vertigo [3]: 5.0%
- Clinician-reported dissociation [4]: 17.1%
- Clinician-reported increased blood pressure [4]: 4.4%
- Clinician-reported sedation [4]: 3.9%
- Dizziness [4]: 21.1%
- Nausea [4]: 14.3%
- Vertigo [4]: 12.4%
